Experiments:
Format in all cases: cell-based
TRPV1 = target: T1, TRPV1 (Mus musculus, UniProt Q704Y3); test: Whole-cell patch clamp in CHO cells transfected with mouse Trpv1 cDNA; conditions: miR-711 10 μM; capsaicin 50 nM
T1 construct: expressed in transfected cells; host or cells: CHO cells (ATCC CRL-9096), plasmid pcDNA3.1-mTrpv1, a gift from Korea University
Protocol: (§1) Constructs. The cDNAs of mouse pcDNA3.1-Trpa1, pcDNA3.1-Trpv1, pcDNA3.1-Trpv2, pcDNA3.1-Trpv3, and pcDNA3.1-Trpv4 were kindly provided Dr. Sun Work Hwang from Korea University. Mouse Trpa1 cDNA was subcloned into pCGN-HA backbone (Addgene) using In-Fusion HD Cloning Kit (Clontech Laboratories, CA). Q5 Site-Directed Mutagenesis Kit was used to generate mTrpa1 mutant (M1-M13) based on pCGN-mTrpa1.
(§2) Cell Culture and Transfection. CD4^+ Myla cell line was cultured in RPMI 1640 media (GIBCO), supplemented with 2 mM Glutamine (GIBCO), 100 U/mL IL-2 (Sigma), 100 U/mL IL-4 (Sigma), and 10% human AB serum (Sigma). HuT 102 cell line was cultured in RPMI 1640 supplemented with pyruvate, HEPES, and 10% (v/v) fetal bovine serum (HyClone). HEK293-hTRPA1 stable cell line was cultured in MEM (GIBCO) containing 2 mM Glutamine, 4 μg/mL Blasticidin, 10% FBS (v/v). B16 and CHO cells were cultured in high glucose (4.5 g/L) Dulbecco's Modified Eagle's Medium (GIBCO) containing 10% (v/v) fetal bovine serum (GIBCO). Culture media were supplemented with 50 units/mL of penicillin and 50 μg/mL streptomycin, and cultures were maintained with 5% CO2 in 37° C. incubator. Transfection (2 μg cDNA) was performed with Lipofectamine™ 2000 Reagent (Invitrogen) at 80% confluency and the transfected cells were cultured in the same media for 48 hr before electrophysiological and biochemical studies. […]

calcium channels = test: Calcium current recording in mouse DRG neurons; conditions: 10 μM, 1 min
Protocol: To test the effects of miR-711 on calcium channels, calcium currents were recorded in mouse DRG neurons (Andrade et al., Nat. Neurosci. 2010, 13, 1249-1256). Calcium current was evoked by a 40-ms step depolarization to −10 mV from the holding potential of −80 mV, using i) external solution (mM): 135 mM TEA-C1, 1 mM CaCl2, 10 mM HEPES, 4 mM MgCl2 and 0.1 μM TTX, adjusted to a pH of 7.4 with TEA-OH, and ii) the pipette solution: 126 mM CsCl, 5 mM Mg-ATP, 10 mM EGTA and 10 mM HEPES, adjusted to a pH of 7.3 with CsOH.

TRPV2 = target: T2, TRPV2 (Mus musculus, UniProt Q9WTR1); test: Whole-cell patch clamp in CHO cells transfected with mouse Trpv2 cDNA; conditions: miR-711 10 μM; cannabidiol 100 μM
T2 construct: expressed in transfected cells; host or cells: CHO cells (ATCC CRL-9096), plasmid pcDNA3.1-mTrpv2, a gift from Korea University
T2 sequence (Q9WTR1 1-756): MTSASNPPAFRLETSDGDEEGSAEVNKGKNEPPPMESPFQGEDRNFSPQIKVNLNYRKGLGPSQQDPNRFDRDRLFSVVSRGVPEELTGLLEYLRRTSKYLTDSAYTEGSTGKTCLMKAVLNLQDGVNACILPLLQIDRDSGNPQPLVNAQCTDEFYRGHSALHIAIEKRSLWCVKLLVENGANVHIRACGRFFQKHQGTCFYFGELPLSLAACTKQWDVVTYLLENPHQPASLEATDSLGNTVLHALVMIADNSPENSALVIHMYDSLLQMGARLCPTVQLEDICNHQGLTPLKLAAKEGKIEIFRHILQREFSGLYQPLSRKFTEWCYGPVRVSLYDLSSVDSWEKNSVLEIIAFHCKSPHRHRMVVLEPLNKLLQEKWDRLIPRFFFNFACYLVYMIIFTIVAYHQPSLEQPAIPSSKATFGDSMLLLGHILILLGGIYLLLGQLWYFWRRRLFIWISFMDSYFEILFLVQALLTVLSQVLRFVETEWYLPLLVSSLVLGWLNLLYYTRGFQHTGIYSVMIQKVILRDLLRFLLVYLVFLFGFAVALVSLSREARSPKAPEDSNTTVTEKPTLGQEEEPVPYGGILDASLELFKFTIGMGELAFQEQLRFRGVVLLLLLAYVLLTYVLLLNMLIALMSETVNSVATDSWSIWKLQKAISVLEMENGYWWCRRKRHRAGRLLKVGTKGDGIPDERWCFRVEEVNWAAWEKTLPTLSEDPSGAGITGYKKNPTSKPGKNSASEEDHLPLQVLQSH
Protocol: as §1, §2

T1 sequence (Q704Y3 whole entry): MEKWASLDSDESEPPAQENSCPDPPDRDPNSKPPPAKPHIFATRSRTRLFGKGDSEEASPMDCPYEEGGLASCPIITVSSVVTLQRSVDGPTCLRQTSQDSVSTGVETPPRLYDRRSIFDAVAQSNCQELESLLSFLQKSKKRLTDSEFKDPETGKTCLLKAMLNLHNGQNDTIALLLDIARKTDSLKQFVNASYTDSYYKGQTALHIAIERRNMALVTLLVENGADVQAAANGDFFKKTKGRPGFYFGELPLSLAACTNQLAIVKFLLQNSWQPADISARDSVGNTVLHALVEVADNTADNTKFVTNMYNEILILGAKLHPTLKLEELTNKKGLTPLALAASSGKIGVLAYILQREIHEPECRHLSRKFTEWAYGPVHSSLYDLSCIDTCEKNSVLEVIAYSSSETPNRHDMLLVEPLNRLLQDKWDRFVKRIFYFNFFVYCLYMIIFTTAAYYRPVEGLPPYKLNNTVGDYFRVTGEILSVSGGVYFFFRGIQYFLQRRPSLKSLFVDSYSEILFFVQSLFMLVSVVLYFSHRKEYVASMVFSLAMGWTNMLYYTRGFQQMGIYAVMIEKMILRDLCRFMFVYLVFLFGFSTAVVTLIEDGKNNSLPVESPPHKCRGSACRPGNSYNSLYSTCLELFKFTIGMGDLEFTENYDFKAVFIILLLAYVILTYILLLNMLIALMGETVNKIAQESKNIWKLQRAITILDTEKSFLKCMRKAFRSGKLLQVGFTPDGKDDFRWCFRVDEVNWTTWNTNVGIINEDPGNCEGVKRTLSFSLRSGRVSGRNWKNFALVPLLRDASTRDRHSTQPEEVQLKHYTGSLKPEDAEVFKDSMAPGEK

miR-711: mmu-miR-711: gggacccggggagagauguaag (SEQ ID NO: 5) (GGGACCCGGGGAGAGAUGUAAG; chemistry not given here)
inward currents (TRPV1): failed to trigger inward currents
calcium currents in DRG neurons (calcium channels): did not alter calcium currents
inward currents (TRPV2): failed to trigger inward currents

Reference: US20210283163A1, “COMPOSITIONS AND METHODS FOR THE TREATMENT OF ACUTE AND CHRONIC PRURITIS” (Duke University, priority 2018, published 2021)
